Data published in US4797415A, “Benzofuran derivatives and use thereof for treating hyperuricemia” (Kotobuki Seiyaku Company Limited, priority 1982, dated 1989).
Where two headings read alike, the source gives them in different places.

System: phenol red retention in circulation
Assay: Uricosuric activity by phenol red retention test in mice
Format: in vivo, male mice
Details: Mus musculus, 1 h, mice, 30 min before 75 mg/kg phenol red, blood 60 min after phenol red
Experimental: Blood samples were collected from the retro-orbital plexus into heparinized capillary tubes 60 minutes after the phenol red injection. The retention of phenol red in circulation was determined according to the method described in J. Med. Pharmaceu.
Benzobromarone was administered subcutaneously to mice in an amount of 200 mg./kg. as a control or standard.

[1] = sc, s.c. 200 mg/kg, read-out: phenol red retention, percentage by comparison with the control group, S.C. (200 mg/kg)
[2] = po, p.o. 200 mg/kg, read-out: phenol red retention, percentage by comparison with the control group, P.O. (200 mg/kg)

Compound	response vs control in vivo at 200 mg/kg [1] [%]	response vs control in vivo at 200 mg/kg [2] [%]
CCc1oc2ccccc2c1C(=O)c1ccccc1OCC(=O)O [Compound 1, 2-(2-ethyl-3-benzofuroyl)phenoxyacetic acid]	152 ± 15.2	–
CCc1oc2ccccc2c1C(=O)c1cccc(OCC(=O)O)c1 [Compound 2, 3-(2-ethyl-3-benzofuroyl)phenoxyacetic acid]	180 ± 15.4	–
CCc1oc2ccccc2c1C(=O)c1ccc(OCCC(=O)O)cc1 [Compound 4, 4-(2-ethyl-3-benzofuroyl)phenoxypropionic acid]	143 ± 19	–
CCc1oc2ccccc2c1C(=O)c1ccc(OC(C)C(=O)O)cc1 (stereo not drawn) [Compound 5, 4-(2-ethyl-3-benzofuroyl)phenoxy-2-methylacetic acid]	158 ± 15.1	176 ± 17.6
CCOC(=O)COc1ccc(C(=O)c2c(CC)oc3ccccc23)cc1 [Compound 6, Ethyl 4-(2-ethyl-3-benzofuroyl)phenoxyacetate]	207 ± 32.5	119 ± 2.3
CCc1oc2ccccc2c1C(=O)c1ccc(OCC(N)=O)cc1 [Compound 7, 4-(2-ethyl-3-benzofuroyl)phenoxyacetamide]	123 ± 23.1	104 ± 8.3
CCc1oc2ccccc2c1C(=O)c1ccc(OCC(=O)NO)cc1 [Compound 8, 4-(2-ethyl-3-benzofuroyl)phenoxyacetohydroxamide]	167 ± 26.6	129 ± 17.6
CCc1oc2ccccc2c1C(=O)c1ccc(OCC(=O)NCC(=O)OC)cc1 [Compound 9, Methyl 4-(2-ethyl-3-benzofuroyl)phenoxyacetoglycinate]	125 ± 18.8	153 ± 15.8
CCc1oc2ccccc2c1C(=O)c1ccc(OCC(=O)NCC(N)=O)cc1 [Compound 10, 4-(2-ethyl-3-benzofuroyl)phenoxyacetoglycinamide]	123 ± 23.1	132 ± 26.3
CCc1oc2ccccc2c1C(=O)c1ccc(OCC(=O)OC)cc1 [Compound 11, Methyl 4-(2-ethyl-3-benzofuroyl)phenoxyacetate]	114 ± 9.5	–
CCc1oc2ccccc2c1C(O)c1ccc(O)cc1 (stereo not drawn) [Compound 12, (2-ethyl-3-benzofuranyl)-4-hydroxyphenylmethanol]	100 ± 21.4	–
CCOC(=O)COc1ccc(C(O)c2c(CC)oc3ccccc23)cc1 (stereo not drawn) [Compound 13, Ethyl 4-(2-ethyl-3-hydroxymethylbenzofuranyl)phenoxyacetate]	114 ± 14.3	–
CCOC(=O)COc1ccc(C(OCC)c2c(CC)oc3ccccc23)cc1 (stereo not drawn) [Compound 14]	135 ± 34.6	120 ± 15
CCCCOC(=O)COc1ccc(C(OCCCC)c2c(CC)oc3ccccc23)cc1 (stereo not drawn) [Compound 15, Butyl 4-(2-ethyl-3-butoxymethylbenzofuranyl)phenoxyacetate]	165 ± 34.6	175 ± 35
Cc1oc2ccccc2c1C(=O)c1ccc(O)cc1 [Compound 16, 2-methyl-3-(4-hydroxybenzoyl)benzofuran]	111 ± 11.1	112 ± 12.5
CCOC(=O)COc1ccc(C(=O)c2c(C)oc3ccccc23)cc1 [Compound 17, Ethyl 4-(2-methyl-3-benzofuroyl)phenoxyacetate]	115 ± 19.2	105 ± 10
Cc1oc2ccccc2c1C(=O)c1ccc(OCC(=O)O)cc1 [Compound 18, 4-(2-methyl-3-benzofuroyl)phenoxyacetic acid]	112 ± 15.4	135 ± 40
CCc1oc2ccccc2c1C(=O)c1ccc(O)c(Cl)c1 [Compound 19, 2-ethyl-3-benzofuranyl 3-chloro-4-hydroxyphenyl ketone]	105 ± 19	–
CCOC(=O)COc1ccc(C(=O)c2c(CC)oc3ccccc23)cc1Cl [Compound 20, Ethyl 2-chloro-4-(2-ethyl-3-benzofuroyl)phenoxyacetate]	128 ± 16.7	–
